Results on four compounds are retold here after article PMC4182326, “Synthesis and Characterization of Novel 2-Amino-Chromene-Nitriles that Target Bcl-2 in Acute Myeloid Leukemia Cell Lines” (PLoS ONE, 2014).

Assay [1] concerns the target T1, Bcl-2 (Homo sapiens, UniProt P10415).
T1 construct: gene BCL2
As to the kind of experiment: Zymed Bcl-2 ELISA; % inhibition of Bcl-2 binding to its antibody at […]. (In general: ELISA stands for enzyme-linked immunosorbent assay.)

Assay [2] addresses T1, Bcl-2. Kind of assay: Zymed Bcl-2 ELISA; inhibition of Bcl-2 binding to its antibody.

The structures appear in SMILES notation.

T1 sequence (P10415 whole entry): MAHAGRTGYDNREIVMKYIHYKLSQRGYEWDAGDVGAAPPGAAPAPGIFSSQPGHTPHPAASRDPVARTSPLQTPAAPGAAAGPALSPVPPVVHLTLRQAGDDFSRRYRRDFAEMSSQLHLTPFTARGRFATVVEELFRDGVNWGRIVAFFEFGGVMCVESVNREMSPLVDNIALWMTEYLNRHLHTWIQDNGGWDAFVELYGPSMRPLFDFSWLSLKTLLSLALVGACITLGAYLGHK

Usually inhibition stands for the drop in the measured response relative to a control, in per cent. The compound `N#CC1=C(N)Oc2cc3ccccc3cc2C1c1cccc([N+](=O)[O-])c1` (stereo not shown) [4a, 2-amino-4-(3-nitrophenyl)-4H-benzo[g]chromene-3-carbonitrile] had an inhibition at 30 µM in assay [1] of 37.8%.

The compound `N#CC1=C(N)Oc2cc3ccccc3cc2C1c1ccccc1[N+](=O)[O-]` (stereo not shown) [4f, 2-amino-4-(2-nitrophenyl)-4H-benzo[g]chromene-3-carbonitrile] came in with an inhibition at 30 µM in assay [1] of 61.9%. The term IC50 denotes the midpoint of a concentration-inhibition curve. A high value points to weaker potency in that assay. `N#CC1=C(N)Oc2cc3ccccc3cc2C1c1c(Cl)cccc1Cl` (stereo not shown) [4g, 2-amino-4-(2,6-dichlorophenyl)-4H-benzo[g]chromene-3-carbonitrile] displayed a 50% inhibitory concentration (IC50) in assay [2] of 17.8 µM. In assay [1], `N#CC1=C(N)Oc2cc3ccccc3cc2C1c1ccc(F)cc1` (stereo not shown) [4h, 2-amino-4-(4-fluorophenyl)-4H-benzo[g]chromene-3-carbonitrile] displayed an inhibition at 30 µM of 53%.
